Earlier results, collected in patent US8748582B2, “Affinity ligands and methods for protein purification” (Monash University, priority 2009, dated 2014).

Biological target: IgG
Details: read-out: dissociation constant for IgG

Protein A: bacterial Fc receptor used as immobilised affinity ligand for antibodies
Kd: 100 nM
